What was measured:
[1] = target: T1, hTLR7 (human Toll-like receptor 7) (Homo sapiens, UniProt Q9NYK1); assay: hTLR7 cell assay (HEK-Blue hTLR7 reporter cells); format: cell-based; conditions: 24 hours, OD 650 nm
T1 construct: host or cells: HEK-Blue hTLR7 (HEK293-derived reporter cells)
T1 sequence (Q9NYK1 27-1049): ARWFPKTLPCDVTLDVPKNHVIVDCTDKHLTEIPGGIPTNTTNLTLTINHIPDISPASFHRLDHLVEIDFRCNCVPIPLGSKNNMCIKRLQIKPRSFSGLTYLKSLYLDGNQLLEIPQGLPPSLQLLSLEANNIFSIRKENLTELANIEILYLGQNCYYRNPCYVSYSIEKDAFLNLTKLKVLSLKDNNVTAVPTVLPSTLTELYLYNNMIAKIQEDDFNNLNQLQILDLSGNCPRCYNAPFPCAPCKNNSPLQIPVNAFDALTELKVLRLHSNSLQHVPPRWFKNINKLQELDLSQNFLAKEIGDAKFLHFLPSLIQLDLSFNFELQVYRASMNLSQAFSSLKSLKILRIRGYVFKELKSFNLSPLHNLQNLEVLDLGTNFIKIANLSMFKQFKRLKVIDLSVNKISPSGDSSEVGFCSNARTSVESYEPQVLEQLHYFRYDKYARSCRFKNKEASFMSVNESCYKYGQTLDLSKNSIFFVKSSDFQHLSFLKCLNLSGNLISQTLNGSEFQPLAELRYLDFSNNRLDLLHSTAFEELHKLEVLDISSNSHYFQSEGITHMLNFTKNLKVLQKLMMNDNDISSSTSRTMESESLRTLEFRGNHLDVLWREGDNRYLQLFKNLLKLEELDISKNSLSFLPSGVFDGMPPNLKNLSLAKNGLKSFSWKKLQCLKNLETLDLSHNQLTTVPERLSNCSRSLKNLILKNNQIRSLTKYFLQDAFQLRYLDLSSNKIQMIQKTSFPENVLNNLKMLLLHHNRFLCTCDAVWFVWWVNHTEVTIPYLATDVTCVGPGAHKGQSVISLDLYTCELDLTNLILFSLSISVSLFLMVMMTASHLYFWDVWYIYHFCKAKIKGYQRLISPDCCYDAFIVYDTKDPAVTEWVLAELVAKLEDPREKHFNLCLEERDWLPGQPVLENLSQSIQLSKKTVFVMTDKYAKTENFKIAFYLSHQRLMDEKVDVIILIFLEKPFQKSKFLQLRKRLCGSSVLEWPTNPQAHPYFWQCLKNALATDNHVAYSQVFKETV
Description: (§1) The payload compounds of Formula (II′) were assayed to evaluate their agonistic activity on hTLR7 (human Toll-like receptor 7) and hTLR8 (human Toll-like receptor 8). Reporter cells lines (HEK-Blue hTLR7 and HEK-Blue hTLR8) were obtained from InvivoGen. Cells were cryopreserved in liquid nitrogen per supplier's instruction. Upon test, the cells were thawed, passaged and cultured in the growth media of DMEM supplemented with 10% fetal bovine serum, 1×NEAA, 1 mM Pyruvate, 2 mM glutamine, […] in the presence of the following antibiotics, as shown as Table 1. Test compounds (at desired concentrations diluted) were added to the 96-well assay plate, 0.5 μL per well. Reporter cells were harvested from the tissue culture flasks by incubation in PBS at 37° C. for two minutes after the media in the flask is removed and cells rinsed with PBS. Cells were counted and diluted in the HEK-Blue Detection media at 50000 cells/mL and incubated for 24 hours at 37° C., in a 5% CO2 humidified incubator. Then 20 μL of cell supernatant were added to the assay plate containing the 180 µL of QUANTI-Blue, incubated for 1 hour at 37° C. Optical density at 650 nm was analyzed using an Envision (Perkin Elmer) plate reader.

[2] = target: T2, hTLR8 (human Toll-like receptor 8) (Homo sapiens, UniProt Q9NR97); assay: hTLR8 cell assay (HEK-Blue hTLR8 reporter cells); format: cell-based; conditions: 24 hours, OD 650 nm
T2 construct: host or cells: HEK-Blue hTLR8 (HEK293-derived reporter cells)
T2 sequence (Q9NR97 27-1041): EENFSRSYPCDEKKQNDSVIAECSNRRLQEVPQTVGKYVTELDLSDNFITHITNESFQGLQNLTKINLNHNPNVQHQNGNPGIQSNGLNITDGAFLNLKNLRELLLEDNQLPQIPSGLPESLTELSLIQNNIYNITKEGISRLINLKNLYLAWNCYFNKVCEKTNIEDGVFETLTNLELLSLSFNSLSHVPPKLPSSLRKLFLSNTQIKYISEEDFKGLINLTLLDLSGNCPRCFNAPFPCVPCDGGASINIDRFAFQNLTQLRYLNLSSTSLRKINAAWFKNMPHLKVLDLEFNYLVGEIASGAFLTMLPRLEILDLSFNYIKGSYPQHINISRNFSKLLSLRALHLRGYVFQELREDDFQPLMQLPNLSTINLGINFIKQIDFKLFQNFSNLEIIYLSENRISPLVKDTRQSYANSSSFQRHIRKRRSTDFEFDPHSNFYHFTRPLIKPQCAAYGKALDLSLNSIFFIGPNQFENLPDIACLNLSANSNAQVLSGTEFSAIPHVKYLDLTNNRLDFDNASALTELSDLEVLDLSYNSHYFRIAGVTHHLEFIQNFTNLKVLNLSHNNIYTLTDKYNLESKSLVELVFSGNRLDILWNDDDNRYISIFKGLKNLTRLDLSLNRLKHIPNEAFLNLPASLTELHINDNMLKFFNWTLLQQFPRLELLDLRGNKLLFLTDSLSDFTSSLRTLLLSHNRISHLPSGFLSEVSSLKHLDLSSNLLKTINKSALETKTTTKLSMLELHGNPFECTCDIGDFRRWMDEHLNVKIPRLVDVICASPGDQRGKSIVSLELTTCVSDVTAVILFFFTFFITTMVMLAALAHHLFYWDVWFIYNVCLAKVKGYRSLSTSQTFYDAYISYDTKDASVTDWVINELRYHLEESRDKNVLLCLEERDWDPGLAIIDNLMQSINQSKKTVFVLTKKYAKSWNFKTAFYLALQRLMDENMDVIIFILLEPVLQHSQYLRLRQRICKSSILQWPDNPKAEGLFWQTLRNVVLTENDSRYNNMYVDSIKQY
Description: as §1

| Compound | EC50 [1] [µM] | EC50 [2] [µM] |
| --- | --- | --- |
| CCC[C@H](C)c1nc2c(N)nc3cc(Cc4ccccc4)ccc3c2n1CC(C)(C)OCCN [Compound 29, (S)-1-(2-(2-aminoethoxy)-2-methylpropyl)-7-benzyl-2-(pentan-2-yl)-1H-imidazo[4,5-c]quinolin-4-amine] | > 10 | > 20 |
| CCCC(C)c1nc2c(N)nc3cc(Cc4cccc(CCN)c4)ccc3c2n1CC(C)(C)O (stereo not shown) [Compound 13, 1-(4-amino-7-(3-(2-aminoethyl)benzyl)-2-(pentan-2-yl)-1H-imidazo[4,5-c]quinolin-1-yl)-2-methylpropan-2-ol] | 1 to 10 | < 5 |
| CCOCc1nc2c(N)nc3cc(Cc4ccccc4)ccc3c2n1CCCCN [Compound 39, 1-(4-aminobutyl)-7-benzyl-2-(ethoxymethyl)-1H-imidazo[4,5-c]quinolin-4-amine] | > 10 | 5 to 20 |
| CCOCc1nc2c(N)nc3cc(Cc4ccccc4)ccc3c2n1CCC(O)C(F)(F)F (stereo not shown) [Compound 46, 4-(4-amino-7-benzyl-2-(ethoxymethyl)-1H-imidazo[4,5-c]quinolin-1-yl)-1,1,1-trifluorobutan-2-ol] | > 10 | > 20 |
| CCOCc1nc2c(N)nc3cc(Cc4ccc(CCN)cc4)ccc3c2n1C[C@@H]1[C@@H](CO)C1(F)F [Compound 49, ((1S,3S)-3-((4-amino-7-(4-(2-aminoethyl)benzyl)-2-(ethoxymethyl)-1H-imidazo[4,5-c]quinolin-1-yl)methyl)-2,2-difluorocyclopropyl)methanol] | > 10 | 5 to 20 |
| CCOCc1nc2c(N)nc3cc(Cc4ccccc4)ccc3c2n1Cc1ccc(CN)cc1 [Compound 43] | < 1 | 5 to 20 |
| CCCC(C)c1nc2c(N)nc3cc(Cc4ccc(CCN)cc4)ccc3c2n1Cc1ccccc1 (stereo not shown) [Compound 41, 7-(4-(2-aminoethyl)benzyl)-1-benzyl-2-(pentan-2-yl)-1H-imidazo[4,5-c]quinolin-4-amine] | 1 to 10 | 5 to 20 |

Second part, the molecule after the results:

| EC50 [1] [µM] | EC50 [2] [µM] | Compound |
| --- | --- | --- |
| < 1 | > 20 | CCOCc1nc2c(N)nc3cc(Cc4ccc(CC(N)=O)cc4)ccc3c2n1CC(C)(C)O [Compound 73, 2-(4-((4-amino-2-(ethoxymethyl)-1-(2-hydroxy-2-methylpropyl)-1H-imidazo[4,5-c]quinolin-7-yl)methyl)phenyl)acetamide] |
| > 10 | > 20 | CCOCc1nc2c(N)nc3cc(Cc4ccc(CCN)cc4)ccc3c2n1CC1(O)CC1 [Compound 47, 1-((4-amino-7-(4-(2-aminoethyl)benzyl)-2-(ethoxymethyl)-1H-imidazo[4,5-c]quinolin-1-yl)methyl)cyclopropan-1-ol] |
| > 10 | > 20 | CCOCc1nc2c(N)nc3cc(Cc4ccccc4)ccc3c2n1CC(C)(C)NCCN [Compound 37, N1-(1-(4-amino-7-benzyl-2-(ethoxymethyl)-1H-imidazo[4,5-c]quinolin-1-yl)-2-methylpropan-2-yl)ethane-1,2-diamine] |
| > 10 | > 20 | CCC[C@H](C)c1nc2c(N)nc3cc(Cc4ccc(CCN)cc4)ccc3c2n1CC(C)(C)O [Compound 10, (S)-1-(4-amino-7-(4-(2-aminoethyl)benzyl)-2-(pentan-2-yl)-1H-imidazo[4,5-c]quinolin-1-yl)-2-methylpropan-2-ol] |
| 1 to 10 | > 20 | CCOCc1nc2c(N)nc3cc(Cc4ccc(CC(N)=O)cc4)ccc3c2n1CCNS(C)(=O)=O [Compound 35, 2-(4-((4-amino-2-(ethoxymethyl)-1-(2-(methylsulfonamido)ethyl)-1H-imidazo[4,5-c]quinolin-7-yl)methyl)phenyl)acetamide] |
| > 10 | > 20 | CCOCc1nc2c(N)nc3cc(Cc4ccccc4)ccc3c2n1CC(C)(C)NCCCN [Compound 36, NJ-(1-(4-amino-7-benzyl-2-(ethoxymethyl)-1H-imidazo[4,5-c]quinolin-1-yl)-2-methylpropan-2-yl)propane-1,3-diamine] |
| > 10 | > 20 | CCOCc1nc2c(N)nc3cc(Cc4ccc(CCN)cc4)ccc3c2n1CCNS(C)(=O)=O [Compound 34, N-(2-(4-amino-7-(4-(2-aminoethyl)benzyl)-2-(ethoxymethyl)-1H-imidazo[4,5-c]quinolin-1-yl)ethyl)methanesulfonamide] |
| > 10 | > 20 | CCOCc1nc2c(N)nc3cc(Cc4ccccc4)ccc3c2n1CC(C)(C)N [Compound 38, 1-(2-amino-2-methylpropyl)-7-benzyl-2-(ethoxymethyl)-1H-imidazo[4,5-c]quinolin-4-amine] |
| > 10 | > 20 | CCOCc1nc2c(N)nc3cc(Cc4ccc(CCN5CCCC5)cc4)ccc3c2n1CC(C)(C)OCCN [Compound 25, 1-(2-(2-aminoethoxy)-2-methylpropyl)-2-(ethoxymethyl)-7-(4-(2-(pyrrolidin-1-yl)ethyl)benzyl)-1H-imidazo[4,5-c]quinolin-4-amine] |
| > 10 | > 20 | CCOCc1nc2c(N)nc3cc(Cc4ccc(C(=O)NCCN)cc4)ccc3c2n1CC(C)(C)O [Compound 6, 4-((4-amino-2-(ethoxymethyl)-1-(2-hydroxy-2-methylpropyl)-1H-imidazo[4,5-c]quinolin-7-yl)methyl)-N-(2-aminoethyl)benzamide] |

From US20250325687A1, “CONJUGATE COMPRISING TOLL-LIKE RECEPTOR AGONIST” (MABSOFT THERAPEUTICS (SHANGHAI) CO., LTD., priority 2022, published 2025)
